# Reference: ChEMBL document CHEMBL5614440, “Development of Novel Indole-Based Covalent Inhibitors of TEAD as Potential Antiliver Cancer Agents” (J Med Chem, 2024)
# Active and inactive are the calls of the source. The calls are words filed in the database; no cut-off is given here.
# Experiments:
# HEK293T = assay: Inhibition of TEAD (unknown origin) expressed in HEK293T cells transfected with 8xGTIIC-luciferase at 10 uM by dual luciferase reporter assay relative to control; type: cell-based; conditions: Homo sapiens
# Huh-7 [1] = assay: Antiproliferative activity against human Huh-7 cells incubated for 3 days by CCK8 assay; type: functional, cell-based; conditions: Huh-7, 72 h
# [2] = (§1) Inhibition of TEAD transcription in human Huh-7 cells transfected with 8xGTIIC-luciferase by dual luciferase reporter assay; type: cell-based
# Huh-7 [3] = assay: as §1; type: cell-based
# Huh-7 [4] = assay: Inhibition of TEAD transcription in human Huh-7 cells transfected with 8xGTIIC-luciferase assessed as downregulation of CTGF protein expression by Western blotting analysis; type: cell-based; conditions: dose 1.25-15 µM
# Huh-7 [5] = assay: Inhibition of TEAD transcription in human Huh-7 cells transfected with 8xGTIIC-luciferase assessed as downregulation of CYR61 mRNA expression incubated for 24 hrs by RT-PCR analysis; type: cell-based; conditions: dose 0.5-15 µM
# HepG2 [6] = assay: Inhibition of TEAD transcription in human HepG2 cells assessed as downregulation of CTGF mRNA expression incubated for 24 hrs by RT-PCR analysis; type: cell-based
# HepG2 [7] = assay: Inhibition of TEAD transcription in human HepG2 cells assessed as downregulation of CYR61 mRNA expression incubated for 24 hrs by RT-PCR analysis; type: cell-based; conditions: dose 0.5-15 µM
# HepG2 [8] = assay: Antiproliferative activity against human HepG2 cells incubated for 3 days by CCK8 assay; type: functional, cell-based; conditions: HepG2, 72 h
# Hs-578T = assay: Antiproliferative activity against human Hs-578T cells incubated for 3 days by CCK8 assay; type: functional, cell-based; conditions: 72 h
# NCI-H226 [9] = assay: Antiproliferative activity against human NCI-H226 cells incubated for 3 days by CCK8 assay; type: functional, cell-based; conditions: NCI-H226, 72 h
# NCI-H2452 = assay: Antiproliferative activity against human NCI-H2452 cells incubated for 3 days by CCK8 assay; type: functional, cell-based; conditions: NCI-H2452, 72 h
# [10] = molecular target: Transcriptional enhancer factor TEF-4 (Homo sapiens) (UniProt Q15562); assay: Covalent binding affinity to human TEAD2-YBD (217 to 447 residues) assessed as change in protein mass at 50 uM incubated for 15 hrs by mass spectrometry analysis
# Homo sapiens = organism: Homo sapiens; assay: Covalent binding affinity to human TEAD2-YBD C380S mutant variant assessed as change in protein mass at 50 uM incubated for 15 hrs by mass spectrometry analysis
# NCI-H226 [11] = assay: Disruption of YAP to TEAD protein-protein interaction in human NCI-H226 cells at 1 uM incubated for 24 hrs by Coimmunoprecipitation method; type: cell-based
# NCI-H226 [12] = assay: Disruption of YAP to TEAD protein-protein interaction in human NCI-H226 cells at 2.5 uM incubated for 24 hrs by Coimmunoprecipitation method; type: cell-based
# NCI-H226 [13] = assay: Disruption of TAZ to TEAD protein-protein interaction in human NCI-H226 cells at 1 to 2.5 uM incubated for 24 hrs by Coimmunoprecipitation method; type: cell-based; conditions: dose 1-2.5 µM
# Huh-7 [14] = assay: Induction of cell cycle arrest in human Huh-7 cells assessed as increase in G1 phase cells at 5 to 10 uM incubated for 48 hrs by propidium iodide staining based flow cytometry (reference value: 36.4%); type: functional; conditions: dose 5-10 µM
# Huh-7 [15] = assay: Induction of cell cycle arrest in human Huh-7 cells assessed as decrease in S phase cells at 5 to 10 uM incubated for 48 hrs by propidium iodide staining based flow cytometry; type: functional; conditions: dose 5-10 µM
# Huh-7 [16] = assay: Induction of cell cycle arrest in human Huh-7 cells assessed as decrease in G2 phase cells at 5 to 10 uM incubated for 48 hrs by propidium iodide staining based flow cytometry; type: functional; conditions: dose 5-10 µM
# HepG2 [17] = assay: Induction of cell cycle arrest in human HepG2 cells assessed as accumulation of G1 phase cells at 5 to 10 uM incubated for 48 hrs by propidium iodide staining based flow cytometry; type: functional; conditions: dose 5-10 µM
# Huh-7 [18] = assay: Induction of apoptosis in human Huh-7 cells assessed as total apoptotic cells at 5 uM incubated for 48 hrs by Annexin V/PI staining based flow cytometry analysis; type: functional
# Huh-7 [19] = assay: Induction of apoptosis in human Huh-7 cells assessed as total apoptotic cells at 10 uM incubated for 48 hrs by Annexin V/PI staining based flow cytometry analysis; type: functional
# HepG2 [20] = assay: Induction of apoptosis in human HepG2 cells assessed as total apoptotic cells at 10 uM incubated for 48 hrs by Annexin V/PI staining based flow cytometry analysis; type: functional
# Huh-7 [21] = assay: Antitumor activity against human Huh-7 cells xenografted in NSG mouse assessed as tumor growth inhibition at 50 mg/kg, ip administered every 3 days for 24 days and measured every 3 days; type: functional; conditions: Huh-7, 576 h, time 24 day, read-out: TGI
# Huh-7 [22] = assay: Antitumor activity against human Huh-7 cells xenografted in NSG mouse assessed as tumor growth inhibition at 50 mg/kg, ip administered every 3 days for 24 days in presence of sorafenib and measured every 3 days; type: functional; conditions: Huh-7, 576 h, time 24 day, read-out: TGI
# [23] = Toxicity in NSG mouse assessed as change in body weight at 50 mg/kg, ip administered every 3 days for 24 days in presence of sorafenib and measured every 3 days; type: organism-based; conditions: in vivo, 576 h, time 24 day
# Mus musculus [24] = assay: In vivo inhibition of TEAD transcription in NSG mouse xenografted with human Huh-7 cells assessed as decrease in CTGF expression at 50 mg/kg, ip administered every 3 days for 24 days by Western blotting analysis; type: functional, organism-based; conditions: time 24.0 day
# Mus musculus [25] = assay: In vivo inhibition of TEAD transcription in NSG mouse xenografted with human Huh-7 cells assessed as decrease in CYR61 expression at 50 mg/kg, ip administered every 3 days for 24 days by Western blotting analysis; type: functional, organism-based; conditions: time 24.0 day
# Hepatoblastoma cell line [26] = assay: Antitumor activity against C57BL/6 mouse hepatoblastoma assessed as reduction in tumor occurrence at 25 mg/kg, ip administered twice a week for 9 weeks and measured after 2 days post last drug treatment; type: functional, organism-based; conditions: time 65.0 day
# Hepatoblastoma cell line [27] = assay: Antitumor activity against C57BL/6 mouse hepatoblastoma assessed as reduction in tumor size at 25 mg/kg, ip administered twice a week for 9 weeks and measured after 2 days post last drug treatment; type: functional, organism-based; conditions: time 65.0 day
# Hepatoblastoma cell line [28] = assay: Antitumor activity against C57BL/6 mouse hepatoblastoma assessed as reduction in number of proliferating cells at 25 mg/kg, ip administered twice a week for 9 weeks and measured after 2 days post last drug treatment by Ki67 staining based immunohistochemistry assay; type: functional, organism-based; conditions: time 65.0 day
# Mus musculus [29] = assay: Downregulation of Ccnd1 mRNA expression in C57BL/6 mouse hepatoblastoma tumor at 25 mg/kg, ip administered twice a week for 9 weeks and measured after 2 days post last drug treatment by qRT-PCR analysis; type: functional, organism-based; conditions: time 65.0 day
# Mus musculus [30] = assay: Downregulation of CTGF mRNA expression in C57BL/6 mouse hepatoblastoma tumor at 25 mg/kg, ip administered twice a week for 9 weeks and measured after 2 days post last drug treatment by qRT-PCR analysis; type: functional, organism-based; conditions: time 65.0 day
# Mus musculus [31] = assay: Downregulation of Cyr61 mRNA expression in C57BL/6 mouse hepatoblastoma tumor at 25 mg/kg, ip administered twice a week for 9 weeks and measured after 2 days post last drug treatment by qRT-PCR analysis; type: functional, organism-based; conditions: time 65.0 day
# Mus musculus [32] = assay: Downregulation of Afp mRNA expression in C57BL/6 mouse hepatoblastoma tumor at 25 mg/kg, ip administered twice a week for 9 weeks and measured after 2 days post last drug treatment by qRT-PCR analysis; type: functional, organism-based; conditions: time 65.0 day
# Mus musculus [33] = assay: Downregulation of Gpc3 mRNA expression in C57BL/6 mouse hepatoblastoma tumor at 25 mg/kg, ip administered twice a week for 9 weeks and measured after 2 days post last drug treatment by qRT-PCR analysis; type: functional, organism-based; conditions: time 65.0 day
# Mus musculus [34] = assay: Downregulation of CTGF protein expression in C57BL/6 mouse hepatoblastoma tumor at 25 mg/kg, ip administered twice a week for 9 weeks and measured after 2 days post last drug treatment by Western blotting analysis; type: functional, organism-based; conditions: time 65.0 day
# Mus musculus [35] = assay: Downregulation of Cyr61 protein expression in C57BL/6 mouse hepatoblastoma tumor at 25 mg/kg, ip administered twice a week for 9 weeks and measured after 2 days post last drug treatment by Western blotting analysis; type: functional, organism-based; conditions: time 65.0 day
# [36] = Half life in Sprague-Dawley rat at 50 mg/kg, ip measured upto 24 hrs by LC-MS/MS analysis; type: ADME, organism-based; conditions: in vivo
# [37] = Tmax in Sprague-Dawley rat at 50 mg/kg, ip measured upto 24 hrs by LC-MS/MS analysis; type: ADME, organism-based; conditions: in vivo
# [38] = Cmax in Sprague-Dawley rat at 50 mg/kg, ip measured upto 24 hrs by LC-MS/MS analysis; type: ADME, organism-based; conditions: in vivo
# [39] = AUClast in Sprague-Dawley rat at 50 mg/kg, ip measured upto 24 hrs by LC-MS/MS analysis; type: ADME, organism-based; conditions: in vivo
# [40] = AUCinfinity in Sprague-Dawley rat at 50 mg/kg, ip measured upto 24 hrs by LC-MS/MS analysis; type: ADME, organism-based; conditions: in vivo
# [41] = MRTinfinity in Sprague-Dawley rat at 50 mg/kg, ip measured upto 24 hrs by LC-MS/MS analysis; type: ADME, organism-based; conditions: in vivo
# Huh-7 [42] = assay: Antiproliferative activity against human Huh-7 cells at 10 uM incubated for 3 days by CCK8 assay; type: functional; conditions: time 3 day
# Sequence of Transcriptional enhancer factor TEF-4 (Homo sapiens) (Q15562 whole entry, the tested form may be a part): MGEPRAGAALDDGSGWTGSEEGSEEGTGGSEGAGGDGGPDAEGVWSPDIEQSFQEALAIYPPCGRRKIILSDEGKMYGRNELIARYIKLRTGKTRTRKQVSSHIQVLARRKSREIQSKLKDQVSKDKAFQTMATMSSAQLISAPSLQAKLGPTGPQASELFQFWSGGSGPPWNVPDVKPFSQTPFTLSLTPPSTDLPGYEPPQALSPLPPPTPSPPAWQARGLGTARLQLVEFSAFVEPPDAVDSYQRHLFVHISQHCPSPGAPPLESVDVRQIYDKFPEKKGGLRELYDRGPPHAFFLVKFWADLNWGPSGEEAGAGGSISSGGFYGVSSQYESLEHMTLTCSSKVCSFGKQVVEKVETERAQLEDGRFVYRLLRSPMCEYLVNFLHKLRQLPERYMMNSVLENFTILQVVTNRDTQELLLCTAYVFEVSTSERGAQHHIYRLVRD
smiles,measurement,setting,value
O=C(CCl)c1c[nH]c2cc(Cl)c(OCc3cccc(C(F)(F)F)c3)cc12,inhibition,HEK293T,93.6%
same,IC50,Huh-7 [1],0.9 µM
same,IC50,[2],0.629 µM
same,inhibition,Huh-7 [3],Dose-Dependent Effect
same,inhibition,Huh-7 [4],Dose-Dependent Effect
same,inhibition,Huh-7 [5],Dose-Dependent Effect
same,inhibition,HepG2 [6],Dose-Dependent Effect
same,inhibition,HepG2 [7],Dose-Dependent Effect
same,IC50,HepG2 [8],2.4 µM
same,IC50,Hs-578T,2.6 µM
same,IC50,NCI-H226 [9],0.4 µM
same,IC50,NCI-H2452,11 µM
same,Activity,[10],Active
same,Activity,Homo sapiens,inactive
same,Activity,NCI-H226 [11],Active
same,Activity,NCI-H226 [12],100%
same,Activity,NCI-H226 [13],inactive
same,Activity,Huh-7 [14],58.2%
same,Activity,Huh-7 [15],Active
same,Activity,Huh-7 [16],Active
same,Activity,HepG2 [17],Active
same,Activity,Huh-7 [18],66.8%
same,Activity,Huh-7 [19],83.5%
same,Activity,HepG2 [20],69%
same,inhibition in vivo at 50 mg/kg,Huh-7 [21],75%
same,inhibition in vivo at 50 mg/kg,Huh-7 [22],93%
same,Activity,[23],Non-Toxic
same,inhibition,Mus musculus [24],Active
same,inhibition,Mus musculus [25],Active
same,Activity,Hepatoblastoma cell line [26],Active
same,Activity,Hepatoblastoma cell line [27],Active
same,Activity,Hepatoblastoma cell line [28],Active
same,Activity,Mus musculus [29],Active
same,Activity,Mus musculus [30],Active
same,Activity,Mus musculus [31],Active
same,Activity,Mus musculus [32],Active
same,Activity,Mus musculus [33],Active
same,Activity,Mus musculus [34],Active
same,Activity,Mus musculus [35],Active
same,half-life,[36],6.49 h
same,Tmax,[37],2.67 h
same,Cmax,[38],28 ng/mL
same,AUC(0-t) at 24 h,[39],175 ng·h/mL
same,AUC(0-inf),[40],208 ng·h/mL
same,MRT inf,[41],9.65 h
N#C/C(=C\c1c[nH]c2cc(Cl)c(OCc3cccc4ccccc34)cc12)C(N)=O,inhibition,HEK293T,51.3%
same,Activity,Huh-7 [42],70%
